Assay [1] has as its target T1, DUSP18 (Homo sapiens, UniProt Q8NEJ0).
T1 construct: purified human DUSP18 for MST (Methods: cell samples lysed with RIPA buffer); recombinant GST-DUSP18-His for dephosphorylation assay; endogenous in HCT116 and SW480 cells for CETSA
T1 sequence (Q8NEJ0 1-188): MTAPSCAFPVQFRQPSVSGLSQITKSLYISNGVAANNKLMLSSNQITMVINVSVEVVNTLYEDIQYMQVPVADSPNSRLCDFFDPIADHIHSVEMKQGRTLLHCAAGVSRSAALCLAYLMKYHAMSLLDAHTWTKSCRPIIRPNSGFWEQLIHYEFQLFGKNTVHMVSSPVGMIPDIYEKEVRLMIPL
Put plainly: microscale thermophoresis. As to the method: microscale thermophoresis on DUSP18 | Kd) value was determined as the binding of Lumacaftor to purified human DUSP18
For orientation: MST reads how a fluorescent partner responds to local heating, with and without ligand.

The target of assay [2] is T1, DUSP18. Put plainly: in vitro dephosphorylation of Flag-USF1, phospho-immunoblot. The class given is biochemical. The settings on record: 40 μM Lumacaftor; recombinant GST-DUSP18-His; substrate Flag-USF1 WT. (In western blotting, separated proteins are transferred to a membrane and probed.)

As for `Cc1ccc(NC(=O)C2(c3ccc4c(c3)OC(F)(F)O4)CC2)nc1-c1cccc(C(=O)O)c1` [Lumacaftor], in assay [1], the Kd (commonly a measure of binding affinity in units of concentration) stood at 29.5 ± 3.5 µM. Also, in assay [2], the “in vitro dephosphorylation of Flag-USF1, phospho-immunoblot” value is on record as “Lumacaftor inhibited the ability of purified DUSP18 to dephosphorylate WT USF1”.

Values taken from publication PMC11239938, “Inhibition of DUSP18 impairs cholesterol biosynthesis and promotes anti-tumor immunity in colorectal cancer” (Nature Communications, 2024).
